In US20220325235A1, “CELL CULTURE METHODS” (The University of Massachusetts, priority 2019, published 2022):
Entries after “also recorded” stand apart in the source; their conditions may differ.

What was measured:
[1] = test system: CHO cells; test: Batch culture spiking of metabolites at end-of-culture concentration: cell density; type: cell-based, Chinese hamster; conditions: 6 days, spiked at end-of-culture concentration
Description: CHO K-1 industrial standard batch process: NIH CHO-K1 cell line is cultured for 6 days, with 6 mM glutamine supplement on the inoculation day. The working volume is 30 mL in 125 mL shake flasks, and the inoculation cell density is 0.5 million cells/mL. The parameters for the shaking incubator are: 125 RPM, and 5% CO2.
Cells were exposed to the identified inhibitory metabolites of Table 1 at their end-of-culture concentration for 6 days in batch culture. […] All of the inhibitory metabolites decreased the antibody productivity (FIG. 4).

[2] = test system: CHO-K1 cell line; test: Fed-batch spiking test: IgG glycan profile by HPLC with Glycan Column; type: cell-based, Chinese hamster
Description: Industrial standard Fed-batch process: CHO-K1 cell line is cultured in corresponding media. Feed for 14 days, with 6 mM glutamine supplement on the inoculation day. The working volume is 30 mL in 125 mL shake flasks, and the inoculation cell density is 0.5 million cells/mL. The parameters for the shaking incubator are: 125 RPM, and 5% CO2. The feeding strategy is 10% corresponding feed everyday starting from day 3 to day 13.
In the standard industrial fed-batch process, cells were exposed to the inhibitors for a long period of time. This experiment mimics the therapeutic antibody production process, and spikes the inhibitors at their end-of-culture cellular concentration. ICA was confirmed as a known inhibitor and was used as a positive inhibitor control. Mixture condition excluded ICA and included AA, HICA, CMP, MSA, TRI, NAP. The process lasted for 14 days, and starting from day 6, the cell density under the inhibitor conditions were lower than the negative control batch.
IgG titer was measured by HPLC with a Protein A column. Product quality was quantified by the IgG glycan profile, which was measured by HPLC with a Glycan Column.

In the case of `O=C(O)C=C(CC(=O)O)C(=O)O` [AA, aconitic acid], the “Cell density compared with the control group” value [1] is reported as “lower cell density”, the “Impact on G1F formation compared to control group” value [2] is reported as “higher impact” and the “Impact on G2F formation compared to control group” value ([2]; Day 14) is reported as “totally inhibits; also recorded: G2F was not formed”.

In the case of `Nc1ccn([C@@H]2O[C@H](COP(=O)(O)O)[C@@H](O)[C@H]2O)c(=O)n1` [CMP, cytidine monophosphate], the “Cell density compared with the control group” value [1] is reported as “lower cell density” and the “Impact on G1F formation compared to control group” value [2] is reported as “higher impact”.

`CC(C)CC(O)C(=O)O` (stereo not drawn) [HICA, leucinic acid] was tested, and the “Impact on G1F formation compared to control group” value [2] was “higher impact”.

In the case of `O=C(O)c1c[nH]c2ccccc12` [ICA, indole-3-carboxylic acid, reference compound], the “Cell density compared with the control group” value [1] is reported as “lower cell density” and the “Impact on G1F formation compared to control group” value [2] is reported as “higher impact”.

`CC(CC(=O)O)C(=O)O` (stereo not drawn) [MSA, methylsuccinic acid] was tested, and the “Impact on G1F formation compared to control group” value [2] was “higher impact”.
